Laboratory results: PubChem BioAssay (NCI)
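Following 48 hours of exposure in 96-well plates, responses at five concentrations were used to interpolate endpoints linearly. Abbreviation: GI50, concentration required for 50% inhibition of growth. TGI: total growth inhibition.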

Columns and labels:
Experiment in all cases: NCI tumour cell line growth inhibition, 48 h
RPMI-8226 leukemia = tested on: RPMI-8226 leukemia
SF-295 CNS = tested on: SF-295 CNS
HOP-92 NSCLC = tested on: HOP-92 NSCLC
HOP-62 NSCLC = tested on: HOP-62 NSCLC
HS 578T breast = tested on: HS 578T breast
HT29 colon = tested on: HT29 colon
U251 CNS = tested on: U251 CNS
SK-MEL-28 melanoma = tested on: SK-MEL-28 melanoma
SN12C renal = tested on: SN12C renal
IGROV1 ovarian = tested on: IGROV1 ovarian
SK-MEL-2 melanoma = tested on: SK-MEL-2 melanoma

Cc1c(Cl)c(S(N)(=O)=O)cc(S(N)(=O)=O)c1NC(=O)c1ccc(Cl)cc1
TGI (RPMI-8226 leukemia): > 100 µM | TGI (SF-295 CNS): > 100 µM | TGI (HOP-92 NSCLC): > 100 µM | TGI (HOP-62 NSCLC): > 100 µM | TGI (HS 578T breast): > 100 µM | TGI (HT29 colon): > 100 µM | TGI (U251 CNS): > 100 µM | TGI (SK-MEL-28 melanoma): > 100 µM | TGI (SN12C renal): > 100 µM | TGI (IGROV1 ovarian): > 100 µM

CC1(C)[C@@H]2C[C@H]1C(Cc1ccccc1C[C@H]1c3cc(-c4ccccn4)ncc3[C@H]3C[C@@H]1C3(C)C)c1cc(-c3ccccn3)ncc12 (stereo partly specified)
TGI (RPMI-8226 leukemia): 3.33 µM | TGI (SF-295 CNS): > 55.1 µM | TGI (HOP-62 NSCLC): 0.328 µM | TGI (HS 578T breast): > 100 µM | TGI (HT29 colon): > 100 µM | TGI (SK-MEL-2 melanoma): > 90.3 µM | TGI (U251 CNS): > 28.8 µM | TGI (SK-MEL-28 melanoma): > 100 µM | TGI (SN12C renal): > 100 µM | TGI (IGROV1 ovarian): 26.2 µM

C/C=C1/CN2CC[C@@H]3c4ccccc4N4[C@H](C(=O)OC)[C@H]1C[C@H]2[C@]34/C=C/C1=COC[C@@H]2[C@H]1C[C@H]1c3c(c4ccccc4n3C)C[C@@H]2N1C
TGI (RPMI-8226 leukemia): 8.33 µM | TGI (SF-295 CNS): 8.18 µM | TGI (HOP-92 NSCLC): 9 µM | TGI (HOP-62 NSCLC): 7.29 µM | TGI (HS 578T breast): 8.93 µM | TGI (HT29 colon): 5.92 µM | TGI (SK-MEL-2 melanoma): 8.14 µM | TGI (U251 CNS): 7.65 µM | TGI (SK-MEL-28 melanoma): 8.88 µM | TGI (SN12C renal): 9.17 µM | TGI (IGROV1 ovarian): 8.81 µM

Nc1nc(SCCC/C=C/B(O)O)nc2c1ncn2C1OC(CO)C(O)C1O (stereo unspecified)
TGI (SF-295 CNS): > 243 µM | TGI (HOP-92 NSCLC): > 243 µM | TGI (HOP-62 NSCLC): > 243 µM | TGI (HT29 colon): > 243 µM | TGI (SK-MEL-2 melanoma): > 243 µM | TGI (U251 CNS): > 243 µM | TGI (SK-MEL-28 melanoma): > 243 µM | TGI (SN12C renal): > 243 µM | TGI (IGROV1 ovarian): > 243 µM

COc1cc2c(cc1OC)C(C1(O)CCCCC1)NCC2 (stereo unspecified)
TGI (RPMI-8226 leukemia): > 100 µM | TGI (SF-295 CNS): > 100 µM | TGI (HOP-92 NSCLC): > 100 µM | TGI (HOP-62 NSCLC): > 100 µM | TGI (HT29 colon): > 100 µM | TGI (SK-MEL-2 melanoma): > 100 µM | TGI (U251 CNS): > 100 µM | TGI (SK-MEL-28 melanoma): > 100 µM | TGI (SN12C renal): > 100 µM | TGI (IGROV1 ovarian): > 100 µM

O=[N+]([O-])/C=C/c1cccc(F)c1
TGI (RPMI-8226 leukemia): 4.14 µM | TGI (SF-295 CNS): 30.2 µM | TGI (HOP-92 NSCLC): 27.6 µM | TGI (HOP-62 NSCLC): 32.4 µM | TGI (HS 578T breast): 9.18 µM | TGI (HT29 colon): 10.3 µM | TGI (SK-MEL-2 melanoma): 29.9 µM | TGI (U251 CNS): 16.4 µM | TGI (SK-MEL-28 melanoma): 5.87 µM | TGI (SN12C renal): 38.9 µM | TGI (IGROV1 ovarian): > 100 µM

Nc1nc(Cl)cc(NCCCCO)n1
TGI (RPMI-8226 leukemia): > 100 µM | TGI (SF-295 CNS): > 100 µM | TGI (HOP-92 NSCLC): > 100 µM | TGI (HOP-62 NSCLC): > 10 µM | TGI (HT29 colon): > 100 µM | TGI (SK-MEL-2 melanoma): > 100 µM | TGI (U251 CNS): > 100 µM | TGI (SK-MEL-28 melanoma): > 100 µM | TGI (SN12C renal): > 100 µM | TGI (IGROV1 ovarian): > 100 µM

CC(=O)O[C@H]1CC[C@]2(C)[C@H]3C(=O)C=C4[C@@H]5C[C@](C)(C(=O)N6CCCNCC6)CC[C@]5(C)CC[C@@]4(C)[C@]3(C)CC[C@H]2C1(C)C
GI50 (RPMI-8226 leukemia): 1.46 µM | TGI (RPMI-8226 leukemia): 4.01 µM | GI50 (SF-295 CNS): 1.76 µM | TGI (SF-295 CNS): 3.2 µM | GI50 (HOP-92 NSCLC): 1.08 µM | TGI (HOP-92 NSCLC): 2.41 µM | GI50 (HOP-62 NSCLC): 1.78 µM | TGI (HOP-62 NSCLC): 4.14 µM | GI50 (HS 578T breast): 2.13 µM | TGI (HS 578T breast): 4.69 µM | GI50 (HT29 colon): 1.5 µM | TGI (HT29 colon): 3.17 µM | GI50 (SK-MEL-2 melanoma): 1.93 µM | TGI (SK-MEL-2 melanoma): 3.7 µM | GI50 (U251 CNS): 1.6 µM | TGI (U251 CNS): 3.37 µM | GI50 (SK-MEL-28 melanoma): 1.85 µM | TGI (SK-MEL-28 melanoma): 3.29 µM

C#CCCCCC#CC1CCCC1C1=CC(=O)c2ccccc21 (stereo unspecified)
TGI (RPMI-8226 leukemia): 6.46 µM | TGI (SF-295 CNS): 16.8 µM | TGI (HOP-92 NSCLC): 16.1 µM | TGI (HOP-62 NSCLC): 20.3 µM | TGI (HT29 colon): 15.9 µM | TGI (SK-MEL-2 melanoma): 24.8 µM | TGI (U251 CNS): 16.9 µM | TGI (SK-MEL-28 melanoma): 18.5 µM | TGI (SN12C renal): 19.4 µM | TGI (IGROV1 ovarian): 19.4 µM

O=C(N/N=C/c1cc(Br)cc(Br)c1[O-])c1ccccc1O.O=C(N/N=C/c1cc(Br)cc(Br)c1[O-])c1ccccc1O.[Cl-].[Fe+3]
TGI (SF-295 CNS): 5.98 µM | TGI (HOP-92 NSCLC): 6.12 µM | TGI (HOP-62 NSCLC): 5.48 µM | TGI (HT29 colon): 13.2 µM | TGI (SK-MEL-2 melanoma): 5.43 µM | TGI (U251 CNS): 4.91 µM | TGI (IGROV1 ovarian): 30.6 µM

CN[C@@H]1[C@H](O)[C@H](NC)[C@H]2O[C@@]3(O)C(=O)C[C@@H](C)O[C@H]3O[C@@H]2[C@H]1O
TGI (RPMI-8226 leukemia): > 100 µM | TGI (SF-295 CNS): > 100 µM | TGI (HOP-92 NSCLC): > 100 µM | TGI (HOP-62 NSCLC): > 100 µM | TGI (HS 578T breast): > 100 µM | TGI (HT29 colon): > 100 µM | TGI (U251 CNS): > 100 µM | TGI (SK-MEL-28 melanoma): > 100 µM | TGI (SN12C renal): > 100 µM | TGI (IGROV1 ovarian): > 100 µM
